Measured values taken from ChEMBL document CHEMBL5385875, “Tumor killing by a dietary curcumin mono-carbonyl analog that works as a selective ROS generator via TrxR inhibition” (Eur J Med Chem, 2023).
pIC50: −log10 of the molar value. Active and inactive are the calls of the source. The rule behind the calls is not given here.

Tests used:
[1] = test system: HepG2; test: Cytotoxicity against human HepG2 cells assessed as reduction in cell viability incubated for 48 hrs by MTT assay; assay type: functional, cell-based; conditions: HepG2, 48 h
[2] = Cytotoxicity against human MRC5 cells assessed as reduction in cell viability incubated for 48 hrs by MTT assay; assay type: toxicity, cell-based
[3] = test system: NCI-H460; test: Cytotoxicity against human NCI-H460 cells assessed as reduction in cell viability at 0.5 to 2 uM incubated for 48 hrs in presence of dithiothreitol by MTT assay; assay type: functional, cell-based; conditions: dose 0.5-2 µM
[4] = test system: NCI-H460; test: Induction of intracellular ROS accumulation in human NCI-H460 cells incubated for 1 to 12 hrs by DCFH-DA dye based fluorescence assay; assay type: functional, cell-based; conditions: dose 0.5-2 µM, time 1-12 hrs
[5] = test system: NCI-H460; test: Induction of intracellular ROS accumulation in human NCI-H460 cells at 0.5 to 2 uM by DCFH-DA dye based fluorescence assay; assay type: functional, cell-based; conditions: dose 0.5-2 µM, time 1-12 hrs, TDE = time-dependent effect
[6] = test system: NCI-H460; test: Induction of intracellular ROS accumulation in human NCI-H460 cells at 1 to 2 uM measured after 6 hrs in presence of NAC by DCFH-DA dye based fluorescence assay; assay type: functional, cell-based; conditions: dose 1-2 µM
[7] = test system: NCI-H460; test: Induction of intracellular ROS accumulation in human NCI-H460 cells at 1 to 2 uM measured after 6 hrs in presence of VE by DCFH-DA dye based fluorescence assay; assay type: functional, cell-based; conditions: dose 1-2 µM
[8] = test system: NCI-H460; test: Cytotoxicity against human NCI-H460 cells assessed as reduction in cell viability at 0.5 to 1 uM measured after 48 hrs in presence of ferrostatin-1 by MTT assay; assay type: functional, cell-based; conditions: dose 0.5-1 µM
[9] = test system: NCI-H460; test: Cytotoxicity against human NCI-H460 cells assessed as reduction in cell viability at 0.5 to 1 uM measured after 48 hrs in presence of 3-methuladenine by MTT assay; assay type: functional, cell-based; conditions: dose 0.5-1 µM
[10] = test system: NCI-H460; test: Induction of apoptosis in human NCI-H460 cells assessed as reduction of mitochondrial membrane potential at 0.5 to 2 uM by JC-1 staining based flow cytometry analysis; assay type: functional, cell-based; conditions: dose 0.5-2 µM, time 12-36 hrs, TDE = time-dependent effect
[11] = test system: NCI-H460; test: Induction of apoptosis in human NCI-H460 cells assessed as reduction of mitochondrial membrane potential at 0.5 to 2 uM incubated for 12 to 36 hrs in presence of NAC by JC-1 staining based flow cytometry analysis; assay type: functional, cell-based; conditions: dose 0.5-2 µM, time 12-36 hrs
[12] = test system: NCI-H460; test: Downregulation of Bcl-2 expression in human NCI-H460 cells at 1 to 2 uM measured after 48 hrs by immunoblot analysis; assay type: functional, cell-based; conditions: dose 1-2 µM
[13] = test system: NCI-H460; test: Upregulation of caspase-9 activation in human NCI-H460 cells at 1 to 2 uM measured after 48 hrs in presence of NAC by immunoblot analysis; assay type: functional, cell-based; conditions: dose 1-2 µM
[14] = test system: NCI-H460; test: Upregulation of caspase-3 activation in human NCI-H460 cells at 1 to 2 uM measured after 48 hrs in presence of NAC by immunoblot analysis; assay type: functional, cell-based; conditions: dose 1-2 µM
[15] = test system: MRC5; test: Induction of ferroptosis in human MRC5 cells assessed as increase in intracellular […] by measuring increase in red fluorescence intensity at 2 uM incubated for 40 hrs by C11-BODIPY staining based microscopy analysis; assay type: functional, cell-based
[16] = test system: NCI-H460; test: Induction of ferroptosis in human NCI-H460 cells assessed as increase in MDA levels at 2 uM measured after 40 hrs in presence of Fer-1 by MDA assay; assay type: functional, cell-based
[17] = test system: NCI-H460; test: Induction of ferroptosis in human NCI-H460 cells assessed as increase in MDA levels at 2 uM measured after 40 hrs in presence of erastin by MDA assay; assay type: functional, cell-based
[18] = test system: NCI-H460; test: Induction of ferroptosis in human NCI-H460 cells assessed as reduction in GPX4 protein expression measured after 24 hrs by immunoblot analysis; assay type: functional, cell-based; conditions: dose 1-2 µM
[19] = Toxicity in BALB/c nude mouse assessed as effect on body weight at 5 to 15 mg/kg, ip measured every two days for 27 days; assay type: organism-based; conditions: in vivo, 648 h, dose 5-15 mg/kg, time 27 day
[20] = Toxicity in BALB/c nude mouse assessed as effect on hair colour at 5 to 15 mg/kg, ip measured every two days for 27 days; assay type: organism-based; conditions: in vivo, 648 h, dose 5-15 mg/kg, time 27 day
[21] = Toxicity in BALB/c nude mouse assessed as effect on liver at 5 to 15 mg/kg, ip measured every two days for 27 days; assay type: organism-based; conditions: in vivo, 648 h, dose 5-15 mg/kg, time 27 day
[22] = Toxicity in BALB/c nude mouse assessed as effect on heart at 5 to 15 mg/kg, ip measured every two days for 27 days; assay type: organism-based; conditions: in vivo, 648 h, dose 5-15 mg/kg, time 27 day
[23] = Toxicity in BALB/c nude mouse assessed as effect on lung at 5 to 15 mg/kg, ip measured every two days for 27 days; assay type: organism-based; conditions: in vivo, 648 h, dose 5-15 mg/kg, time 27 day
[24] = Toxicity in BALB/c nude mouse assessed as effect on kidney at 5 to 15 mg/kg, ip measured every two days for 27 days by H and E staining based analysis; assay type: organism-based; conditions: in vivo, 648 h, dose 5-15 mg/kg, time 27 day
[25] = Toxicity in BALB/c nude mouse assessed as effect on liver at 5 to 15 mg/kg, ip measured every two days for 27 days by H and E staining based analysis; assay type: organism-based; conditions: in vivo, 648 h, dose 5-15 mg/kg, time 27 day
[26] = test system: MRC5; test: Induction of ROS accumulation in human MRC5 cells assessed as reduction in GSH levels by measuring yellow green fluorescence incubated for 9 hrs by fluorescence microscope based analysis; assay type: functional, cell-based
[27] = molecular target: T1, Thioredoxin reductase (Homo sapiens) (UniProt Q16881+Q9NNW7+Q86VQ6); test: Inhibition of TrxR in human NCI-H460 cells measured after 6 hrs by fluorescence microscopy based analysis; assay type: cell-based; conditions: dose 0.5-2 µM
[28] = molecular target: T1, Thioredoxin reductase (Homo sapiens); test: Inhibition of TrxR in human NCI-H460 cells measured after 6 hrs by DTNB reduction assay relative to control; assay type: cell-based; conditions: dose 0.5-2 µM
[29] = test system: NCI-H460; test: Inhibition of TrxR protein expression in human NCI-H460 cells measured after 6 hrs by immunoblot analysis; assay type: functional, cell-based; conditions: dose 0.5-2 µM
[30] = test system: NCI-H460; test: Antitumor activity against human NCI-H460 cells xenografted in BALB/c nude mouse assessed as induction of apoptosis at 5 to 15 mg/kg by H and E staining based analysis; assay type: functional, organism-based; conditions: dose 5-15 mg/kg

## O=C1/C(=C/c2cccc(C(F)(F)F)c2)CNC/C1=C\c1cccc(C(F)(F)F)c1
[1]
  pIC50: 6.17
[2]
  IC50 at 48 h: 14.1 µM
[3]
  Activity: inactive
[4]
  Activity: Dose-Dependent Effect
[5]
  Activity: Tde
[6]
  Activity: inactive
[7]
  Activity: inactive
[8]
  Activity: Active
[9]
  Activity: inactive
[10]
  Activity: Tde
[11]
  Activity: inactive
[12]
  Activity: Active
[13]
  Activity: inactive
[14]
  Activity: inactive
[15]
  Activity: inactive
[16]
  Activity: inactive
[17]
  Activity: Active
[18]
  Activity: Dose-Dependent Effect
[19]
  Activity: Non-Toxic
[20]
  Activity: Non-Toxic
[21]
  Activity: Non-Toxic
[22]
  Activity: Non-Toxic
[23]
  Activity: Non-Toxic
[24]
  Activity: Non-Toxic
[25]
  Activity: Non-Toxic
[26]
  Activity: inactive
[27]
  inhibition: Dose-Dependent Effect
[28]
  inhibition: Dose-Dependent Effect
[29]
  inhibition: Dose-Dependent Effect
[30]
  Activity: Active
